Measurements from BigSolDB 2.1.

O=C(/C=C/C=C/c1ccc2c(c1)OCO2)N1CCCCC1
solubility (mole fraction)
Conditions	298.2 K	303.2 K	308.2 K	313.2 K	318.2 K
in DMSO	0.0287	0.0303	0.0321	0.0339	0.0359
in ethanol	0.00899	0.01	0.011	0.012	0.0134
in ethyl acetate	0.00985	0.011	0.0123	0.0137	0.0154
in ethylene glycol	0.00386	0.00444	0.00515	0.00597	0.0067
in isopropanol	0.0123	0.0136	0.0149	0.0164	0.0182
in methanol	0.00527	0.00584	0.00648	0.00719	0.00791
in n-butanol	0.0156	0.0169	0.0183	0.0201	0.022
in propylene glycol	0.01	0.0111	0.0122	0.0134	0.0147
in sec-butanol	0.0158	0.017	0.0187	0.0206	0.0225
in transcutol	0.0797	0.0826	0.0852	0.0883	0.0917
in water	1.07e-05	1.18e-05	1.29e-05	1.41e-05	1.52e-05

Conditions	solubility (mole fraction)
in PEG-400, 298.2 K	0.0518
in PEG-400, 303.2 K	0.0584
in PEG-400, 308.2 K	0.0652
in PEG-400, 313.2 K	0.0718
in PEG-400, 318.2 K	0.0788
